Results from PubChem BioAssay (NCI).
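Dose response: 5 concentrations. Exposure: 48 h. Format: 96-well plates. Endpoint: linear interpolation; highest concentration if not reached. TGI denotes the concentration required for complete inhibition of growth.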

What was measured:
Assay in all cases: NCI tumour cell line growth inhibition, 48 h
[1] = system: M14 melanoma
[2] = system: CCRF-CEM leukemia
[3] = system: KM20L2 colon
[4] = system: LXFL 529 NSCLC
[5] = system: SNB-78 CNS
[6] = system: DMS 114 small cell lung
[7] = system: M19-MEL melanoma
[8] = system: DLD-1 colon
[9] = system: XF 498 CNS
[10] = system: RXF-631 renal
[11] = system: HOP-18 NSCLC
[12] = system: DMS 273 small cell lung

**Q.** How did the TGI [1] turn out when `CCOC(=O)c1c(SCCN2CCCC2)n(-c2ccccc2)c(=S)n(-c2ccccc2)c1=O` was run?
**A.** Its TGI is 3.25 µM.

**Q.** And the TGI [2]?
**A.** Its TGI is 4.14 µM.

**Q.** Which TGI [1] does the source give for `COc1ccc(NC2Oc3cc4c(cc3C(c3cc(OC)c(OC)c(OC)c3)C2C)OCO4)cc1` (stereo unspecified) here?
**A.** The TGI was > 45.1 µM.

**Q.** And the TGI [2]?
**A.** Its TGI is > 100 µM.

**Q.** With `C=CC/C(C(=O)OC)=C(/C(=O)OC)N(CCC)CCC` as the molecule, how does the TGI [1] read?
**A.** The TGI was > 100 µM.

**Q.** And the TGI [2]?
**A.** Its TGI is > 100 µM.

**Q.** For `CC(C)CCNC(=O)c1ccc(CNC(=O)/C=C/c2ccc(OCc3ccccc3)cc2)cc1`, which TGI [1] is on record?
**A.** Its TGI is > 100 µM.

**Q.** What about the TGI [2] of the same molecule?
**A.** Its TGI is > 100 µM.

**Q.** Which results are given for `CC(=O)CC(=O)c1cc2c(=O)oc(C)cc2oc1=O`?
**A.** TGI [1]: > 37.5 µM; TGI [2]: > 37.5 µM

**Q.** Which results are given for `CC1=CC=CC(C)(C)CC1(O[Si](C)(C)C)C(F)(F)F` (stereo unspecified)?
**A.** TGI [1]: > 100 µM; TGI [2]: > 100 µM

**Q.** How did the TGI [1] turn out when `CCN(CCCN(CC)C(=O)N[C@@H](Cc1ccccc1)C(=O)NC)C(=O)N[C@@H](Cc1ccccc1)C(=O)NC` was run?
**A.** The TGI was > 100 µM.

**Q.** For `O=C(O[C@H](/C=C/c1ccccc1)P1(=O)N(Cc2ccccc2)[C@@H]2CCCC[C@H]2N1Cc1ccccc1)c1ccccc1`, which TGI [1] is on record?
**A.** The TGI was > 100 µM.

**Q.** What about the TGI [2] of the same molecule?
**A.** Its TGI is > 100 µM.

**Q.** For `O=C1OC[C@@H]2Cc3c([nH]c4ccccc34)[C@@H](c3ccc(O)cc3)N12`, which TGI [1] is on record?
**A.** Its TGI is 54.7 µM.

**Q.** And the TGI [2]?
**A.** The TGI was > 84.4 µM.

**Q.** How did the TGI [1] turn out when `CCN(CC)CCCn1c(=O)c2cccnc2n2c3c(=O)n(C)c(=O)n(C)c3nc12` was run?
**A.** Its TGI is > 100 µM.

**Q.** What about the TGI [2] of the same molecule?
**A.** Its TGI is > 100 µM.

**Q.** Which TGI [1] does the source give for `O=C1CC(c2ccc([N+](=O)[O-])cc2)C2(C(=O)NC(=S)NC2=O)C(c2ccc([N+](=O)[O-])cc2)C1` (stereo unspecified) here?
**A.** The TGI was 45.7 µM.

**Q.** And the TGI [2]?
**A.** The TGI was > 100 µM.

**Q.** What does the source list for `O=C(OCc1ccccc1)OOC(=O)OCc1ccccc1`?
**A.** TGI [1]: > 100 µM; TGI [3]: > 100 µM; TGI [4]: > 100 µM; TGI [5]: > 100 µM; TGI [6]: > 100 µM; TGI [7]: > 100 µM; TGI [8]: > 100 µM; TGI [2]: > 100 µM

**Q.** With `CC(C)(CO)N1C(=O)c2ccccc2C1(O)c1ccc(Cl)cc1` (stereo unspecified) as the molecule, how does the TGI [1] read?
**A.** Its TGI is > 100 µM.

**Q.** And the TGI [2]?
**A.** Its TGI is > 100 µM.

**Q.** For `N#Cc1c(OCCF)c2ccccc2n2c1nc1ccccc12`, which TGI [1] is on record?
**A.** The TGI was > 100 µM.

**Q.** What about the TGI [2] of the same molecule?
**A.** The TGI was > 100 µM.

**Q.** For `CC(=O)/C(=C/n1c(=S)sc2ccccc21)C(=O)Nc1ccccc1C`, which TGI [1] is on record?
**A.** Its TGI is > 100 µM.

**Q.** What does the source list for `Nc1ncnc2c1ncn2C(=O)NC12CC3CC(CC(C3)C1)C2`?
**A.** TGI [1]: > 100 µM; TGI [2]: > 100 µM

**Q.** `N#Cc1c2c(c(Nc3ccc(F)cc3)n3c1nc1ccccc13)CCC2` was tested. Which TGI [1] did it give?
**A.** Its TGI is 18.4 µM.

**Q.** And the TGI [2]?
**A.** The TGI was 4.52 µM.

**Q.** Which results are given for `CN(C)c1ccc(/C(Br)=C2\OC(=O)c3ccccc32)cc1`?
**A.** TGI [1]: > 100 µM; TGI [2]: > 100 µM

**Q.** Which TGI [1] does the source give for `CCOC(=O)C1C(=O)CC(O)(c2ccccc2)C(C(=O)OCC)C1c1ccc(OC)cc1` (stereo unspecified) here?
**A.** Its TGI is 82.9 µM.

**Q.** And the TGI [2]?
**A.** Its TGI is 79.2 µM.

**Q.** How did the TGI [9] turn out when `COc1ccc(CNc2nc3ccc(C(F)(F)F)cc3nc2-c2ccccc2)cc1OC` was run?
**A.** Its TGI is > 100 µM.

**Q.** And the TGI [3]?
**A.** The TGI was > 100 µM.

**Q.** And the TGI [10]?
**A.** Its TGI is > 100 µM.

**Q.** And the TGI [4]?
**A.** Its TGI is > 100 µM.

**Q.** And the TGI [5]?
**A.** Its TGI is > 100 µM.

**Q.** And the TGI [11]?
**A.** Its TGI is > 100 µM.

**Q.** What about the TGI [12] of the same molecule?
**A.** The TGI was > 100 µM.

**Q.** And the TGI [7]?
**A.** Its TGI is > 100 µM.

**Q.** And the TGI [2]?
**A.** The TGI was > 100 µM.

**Q.** What does the source list for `OCc1ccccc1C1CSCSC1`?
**A.** TGI [9]: > 100 µM; TGI [4]: > 100 µM; TGI [5]: > 100 µM; TGI [12]: > 100 µM; TGI [6]: > 100 µM; TGI [7]: > 100 µM; TGI [8]: > 100 µM; TGI [2]: > 100 µM

**Q.** How did the TGI [1] turn out when `CC1CC(C#N)=C2NCCCCN2C1=O` (stereo unspecified) was run?
**A.** The TGI was > 100 µM.

**Q.** And the TGI [2]?
**A.** The TGI was > 100 µM.

**Q.** Which TGI [1] does the source give for `CCOC(=O)C(=O)N1C(C)=C(C(=O)OCC)CC(C(=O)OCC)=C1C` here?
**A.** The TGI was > 100 µM.

**Q.** And the TGI [2]?
**A.** Its TGI is > 100 µM.

**Q.** What does the source list for `CCC[C@H](C)[C@H]1NC(=O)[C@@H](NC(=O)[C@@H](CC(C)C)N(C)C(=O)C2CCCN2C(=O)[C@H](C)O)[C@@H](C)OC(=O)[C@H](CC(C)C)N(C)C(=O)[C@@H]2CCCN2C(=O)[C@H](CC(C)C)NC(=O)[C@@H](C)C(=O)[C@H](C(C)C)OC(=O)C[C@@H]1O` (stereo partly specified)?
**A.** TGI [1]: 0.0848 µM; TGI [2]: 0.141 µM

**Q.** Which results are given for `CN1CN(c2ccccc2)C2(CCN(CCCC3(c4cccs4)OCCO3)CC2)C1=O`?
**A.** TGI [1]: > 100 µM; TGI [2]: > 100 µM

**Q.** Which results are given for `C[C@@H]1C[C@H](O)[C@]2(O)O[C@@H]3C[C@@]4(C=O)[C@@H](CC=C5[C@@H]4CC[C@]4(C)[C@@H](C6=CC(=O)OC6)CC[C@]54O)C[C@H]3O[C@@H]2O1`?
**A.** TGI [1]: 0.817 µM; TGI [2]: 0.0161 µM

**Q.** `O=C(CCc1ccc(O)cc1)c1c(O)cc(O)cc1OC1OC(CO)C(O)C(O)C1O` (stereo unspecified) was tested. Which TGI [1] did it give?
**A.** Its TGI is > 100 µM.

**Q.** Which results are given for `Cc1cc(C)c2c(n1)S(=O)(=O)N(CCCN1CCN(c3cccc(C(F)(F)F)c3)CC1)/C(=C(\O)c1ccc(Cl)cc1)C2=O`?
**A.** TGI [1]: 18.1 µM; TGI [2]: > 100 µM

**Q.** Which results are given for `C(=Nc1ccc(-c2nc3ccccc3s2)cc1)c1ccco1`?
**A.** TGI [1]: > 100 µM; TGI [2]: > 100 µM

**Q.** Which results are given for `O=C1N[C@@H]2c3c(csc3Br)C(=O)[C@@H]2O1`?
**A.** TGI [1]: > 100 µM; TGI [2]: 40.1 µM

**Q.** Which TGI [1] does the source give for `CCOP(=O)(OCC)/C(F)=C/c1ccccc1` here?
**A.** Its TGI is > 100 µM.

**Q.** What about the TGI [2] of the same molecule?
**A.** The TGI was > 100 µM.

**Q.** With `COC(=O)CCCC(=O)C(=Nc1c(Cl)cccc1Cl)NNc1ccc(Cl)cc1` as the molecule, how does the TGI [1] read?
**A.** The TGI was > 100 µM.

**Q.** What about the TGI [2] of the same molecule?
**A.** Its TGI is 75.3 µM.

**Q.** With `O=C1C(C=NCCc2c[nH]c3ccccc23)C(C(F)(F)F)=NN1c1nc2ccccc2s1` (stereo unspecified) as the molecule, how does the TGI [1] read?
**A.** Its TGI is > 100 µM.

**Q.** What about the TGI [2] of the same molecule?
**A.** The TGI was 57.8 µM.

**Q.** Which TGI [1] does the source give for `O=C(O)Cc1ccc2nc(COC(=O)c3ccccc3)sc2c1` here?
**A.** The TGI was > 100 µM.

**Q.** With `c1ccc(N=c2snc(-c3ccccc3)s2)cc1` as the molecule, how does the TGI [1] read?
**A.** The TGI was > 100 µM.

**Q.** What about the TGI [3] of the same molecule?
**A.** The TGI was > 100 µM.

**Q.** What about the TGI [4] of the same molecule?
**A.** The TGI was > 100 µM.

**Q.** And the TGI [5]?
**A.** The TGI was > 100 µM.

**Q.** And the TGI [11]?
**A.** The TGI was > 100 µM.

**Q.** What about the TGI [12] of the same molecule?
**A.** Its TGI is > 100 µM.

**Q.** And the TGI [6]?
**A.** The TGI was > 100 µM.

**Q.** And the TGI [7]?
**A.** The TGI was > 100 µM.

**Q.** What about the TGI [8] of the same molecule?
**A.** The TGI was > 100 µM.

**Q.** What about the TGI [2] of the same molecule?
**A.** Its TGI is > 100 µM.

**Q.** With `O=C1NC(=S)NC(=O)C1C(c1ccccc1[N+](=O)[O-])C1C(=O)NC(=S)NC1=O` as the molecule, how does the TGI [1] read?
**A.** The TGI was > 100 µM.

**Q.** What about the TGI [2] of the same molecule?
**A.** The TGI was > 100 µM.

**Q.** `O=c1nc2c(c(-c3cccc(Cl)c3)[nH]1)COC/C2=C\c1cccc(Cl)c1` was tested. Which TGI [1] did it give?
**A.** Its TGI is > 100 µM.

**Q.** And the TGI [2]?
**A.** Its TGI is > 100 µM.

**Q.** For `CN1C(=O)CN(NC(=O)C2=C(O)c3ccc(Br)cc3S(=O)(=O)N2)C1=S`, which TGI [1] is on record?
**A.** Its TGI is > 100 µM.

**Q.** And the TGI [2]?
**A.** The TGI was 51.1 µM.

**Q.** `C[C@]12CC/C(=N\O)C=C1CC[C@@H]1[C@@H]2CC[C@]2(C)C(=N/O)/C(=C/c3cccnc3)C[C@@H]12` was tested. Which TGI [1] did it give?
**A.** The TGI was 75 µM.

**Q.** And the TGI [2]?
**A.** Its TGI is > 100 µM.
